Laboratory results: patent US20090270448A1, “PHARMACEUTICAL FORMULATIONS COMPRISING CLOPIDOGREL” (ACINO PHARMA AG, priority 2006, published 2009)
Structures can show the parent of a compound that is named as a salt.

Key:
[1] = Storage stability of clopidogrel besylate and melt granulates containing it (HPLC impurities); assay type: physicochemical
Protocol: The stability on storage of clopidogrel besylate salt (CLO.Bes) is examined in comparison to melt granulates containing it. The main degradation product is alpha-(2-chlorophenyl)-4,5,6,7-tetrahydrothieno[3,2-c]pyridine-5-acetic acid, hereinafter designated as “ImpA” (ImpA is named according to USP 29 and corresponds to the hydrolysis product of Clopidogrel). In addition, the sum of all impurities (“SumImp”) is determined. Both ImpA and SumImp are expressed as percent by weight of the amount of the clopidogrel salt at the beginning of the experiment on day 0 and are determined using the HPLC-system described below.
In the below Table 1 for example the term “10% PEG 6000” means the melt granulate consisting of 10% by weight PEG 6000 and 90% by weight clopidogrel besylate, 30% PEG 6000 means the melt granulate consisting of 30% by weight PEG 6000 and 70% by weight clopidogrel besylate, etc.
The above-mentioned HPLC system is as follows:
Column: 250 mm×4.6 mm Modulo-Cart QS Uptisphere HDO, 3 μm
Detector: UV Detector or DAD Detector
Eluent A: 0.01M sodium phosphate dibasic aqueous solution (1.78 g Na2HPO4*2H2O/l), adjusted to pH 3.0±0.05 with phosphoric acid 85%
Mobile phase: 35% Eluent A+65% Eluent B
Preparation of Reference and Sample Solutions:
Approximately 55.92 mg of clopidogrel besilate reference substance are weighed into a 50 ml volumetric flask. Add 20 ml of mobile phase and sonicate in an ultrasonic bath at ambient temperature until the substance is dissolved (approx. 5 min). Make up to the mark with mobile phase. The concentration of clopidogrel besilate is 0.75 mg/ml as free base. Two independent reference solutions are prepared.
Sample Solution for 75 mg Tablets
Weigh 10 tablets and transfer them quantitatively into a 250 ml volumetric flask. Dissolve and make up to the mark with mobile phase. Dilute 25.0 ml to 100.0 ml with mobile phase. Filter through a 0.45 μm PTFE-filter in a HPLC vial. The concentration of clopidogrel is 0.75 mg/ml as free base. Two independent sample solutions are prepared.

[2] = Storage stability of clopidogrel hydrochloride and melt granulates containing it (HPLC impurities); assay type: physicochemical
Protocol: The stability on storage of clopidogrel hydrochloride salt (CLO.HCl) has been examined in comparison to melt granulates containing it. The main degradation product is alpha-(2-chlorophenyl)-4,5,6,7-tetrahydrothieno[3,2-c]pyridine-5-acetic acid, hereinafter designated as “ImpA” (impurity acid). In addition, the sum of all impurities (“SumImp”) is determined by HPLC analogously as described above for clopidogrel besylate. Both ImpA and SumImp are expressed as percent by weight of the amount of the clopidogrel salt at the beginning of the experiment on day 0. The granulates mentioned in the below Table 2 are melt granulates consisting of 50% by weight of PEG 6000 and 50% clopidogrel hydrochloride, and 50% Compritol 888 ATO and 50% clopidogrel hydrochloride, respectively.

[3] = Day 0, percent by weight of the clopidogrel salt at day 0, HPLC
[4] = Day 15 at 50° C. and 75% relative humidity
[5] = Day 30 at 40° C. and 75% relative humidity

ImpA [%] [1, 3]	SumImp [%] ([1]; Day 0, sum of all impurities, percent by weight of the clopidogrel salt at day 0, HPLC)	ImpA [%] [1, 4]	SumImp [%] [1, 4]	SumImp [%] ([2]; Day 0)	ImpA [%] [2, 3]	ImpA [%] [2, 5]	SumImp [%] [2, 5]	impurities relative to clopidogrel hydrochloride stabilized in the melt granulates ([2]; after storage for 30 days at 40° C. and 75% relative humidity)	SMILES
0.09%	0.24%	0.34%	0.52%	–	–	–	–	–	COC(=O)[C@H](c1ccccc1Cl)N1CCc2sccc2C1 [CLO•Bes, clopidogrel besylate]
–	–	–	–	0.58%	0.18%	1.28%	1.99%	nearly twice as much impurities	COC(=O)[C@H](c1ccccc1Cl)N1CCc2sccc2C1 [CLO•HCl, clopidogrel hydrochloride]
